This series is described as follows: Water solubility: distilled water added to a weighed amount until a clear solution is obtained. In kind it is physicochemical. The conditions noted are these: for solubility: thermodynamic from solid, distilled water, weight in mg divided by volume of clear solution in mL. How it is done: Measurement of the water solubility of the test compounds is accomplished by using methods well known to those skilled in the art. Specifically, to a weighed amount of the test compound of the example compound Formula I (1-3) distilled water was added in small proportions until a clear solution was obtained. The total volume of the solution is measured. The water solubility is calculated by dividing the weight of the salt, in milligrams (mg), by the volume of the solution, in mL. […] The compound of Formula I (1-3) is therefore, at least 260 times more soluble in water than EPA itself. This is a clear indication of an unexpectedly high degree of bioavailability of the compositions of the invention. Highly water soluble medicinal preparations, when administered orally, result in efficient absorption from the gastrointestinal tract in to systemic circulation. Furthermore, water soluble preparations are especially suitable for parenteral administration.

`CC/C=C\C/C=C\C/C=C\C/C=C\C/C=C\CCCC(=O)O` [EPA, Eicosapentaenoic acid, reference compound] returned a solubility of less than 0.2 mg/mL.
In turn, `CC/C=C\C/C=C\C/C=C\C/C=C\C/C=C\CCCC(=O)OCCCN1CC(O)[C@@H](O)[C@H](O)C1CO` (stereo partly drawn) [Formula I (1-3)] returned a solubility of 68.6 mg/mL. In addition, where the note is “ratio of water solubility versus eicosapentaenoic acid (EPA)”, the “times more soluble in water than EPA” value is listed as “at least 260 times”.

The values are drawn from patent US9150557B1, “Compositions and methods for the treatment of hyperglycemia” (CELLIX BIO PRIVATE LIMITED, priority 2014, dated 2015).
